For nine compounds, GI50 and TGI results are on record in PubChem BioAssay (NCI).

Test systems include COLO 205 colon; OVCAR-4 ovarian; SW-620 colon; MOLT-4 leukemia; NCI-H460 lung; SNB-19 CNS; HCC-2998 colon; UACC-62 melanoma.
Holding throughout (assay): NCI-60 cell line screen, 48 h

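Dose response: 5 concentrations. Exposure: 48 h. Format: 96-well plates. Endpoint: linear interpolation; highest concentration if not reached. Here, GI50 denotes the concentration required for 50% inhibition of growth. Definition used: TGI = concentration required for complete inhibition of growth.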

With `O=C1CC(c2ccc3c(c2)OCO3)Nc2ccccc21` (stereo unspecified), the GI50 is 16.5 µM in the test on COLO 205 colon; 12.2 µM with OVCAR-4 ovarian; 6.61 µM in the test with SW-620 colon; 12.8 µM with MOLT-4 leukemia; 9.02 µM in the test with NCI-H460 lung; 12.5 µM in the test on SNB-19 CNS. In addition, the GI50 with HCC-2998 colon was 15.8 µM; in the test with UACC-62 melanoma, 11.7 µM. In addition, the TGI came out at 37.2 µM in the test with COLO 205 colon; 56.7 µM with OVCAR-4 ovarian; 23.1 µM in the test with SW-620 colon; 64.2 µM with MOLT-4 leukemia; 33.7 µM with NCI-H460 lung; 30.2 µM with SNB-19 CNS. The figures for the TGI in the test on HCC-2998 colon and with UACC-62 melanoma were 30.4 µM and 30.3 µM, respectively.
As to `Cc1ccc(C(=O)/C(=C/c2ccc([N+](=O)[O-])cc2)SCc2ccc(Cl)cc2)cc1`, the GI50 in the test on COLO 205 colon was 3.33 µM; in the test with OVCAR-4 ovarian, 1.87 µM; in the test on SW-620 colon it was 0.21 µM; in the test on MOLT-4 leukemia, 0.471 µM; in the test on NCI-H460 lung it was 2.58 µM; in the test with SNB-19 CNS it was 1.17 µM. Further, the GI50 in the test with HCC-2998 colon is 1.67 µM; in the test on UACC-62 melanoma, 1.34 µM. The TGI is 20.7 µM with COLO 205 colon; 6.37 µM with OVCAR-4 ovarian; 0.523 µM in the test on SW-620 colon; above 100 µM in the test with MOLT-4 leukemia; 12 µM with NCI-H460 lung; 3.02 µM in the test on SNB-19 CNS. Besides, the figures for the TGI in the test with HCC-2998 colon and in the test with UACC-62 melanoma were 3.37 µM and 3.41 µM, respectively.
Regarding `CO[C@H](C(=O)[C@@H](O)[C@@H](C)O)[C@@H]1Cc2cc3cc(O[C@H]4C[C@@H](O[C@H]5C[C@@H](O)[C@H](O)C(C)O5)[C@H](O)C(C)O4)c(C)c(O)c3c(O)c2C(=O)[C@H]1O[C@H]1C[C@@H](O[C@H]2C[C@@H](O[C@H]3C[C@](C)(O)C(=O)C(C)O3)[C@@H](O)C(C)O2)[C@H](O)C(C)O1` (stereo partly specified), the GI50 in the test with COLO 205 colon was 0.053 µM; with OVCAR-4 ovarian, 0.124 µM; in the test with SW-620 colon, 0.075 µM; in the test on MOLT-4 leukemia, 0.193 µM; in the test on NCI-H460 lung it was 0.0323 µM; in the test with SNB-19 CNS, 0.0715 µM. Moreover, the GI50 in the test with HCC-2998 colon was 0.222 µM; in the test with UACC-62 melanoma, 0.0187 µM. In addition, the TGI is 0.459 µM with COLO 205 colon; 7.04 µM in the test on OVCAR-4 ovarian; above 33.2 µM in the test with SW-620 colon; above 19.1 µM in the test on MOLT-4 leukemia; above 33.2 µM in the test with NCI-H460 lung; above 33.2 µM with SNB-19 CNS. Also, the results for the TGI in the test on HCC-2998 colon and in the test on UACC-62 melanoma were 1.72 µM and 0.102 µM, respectively.
`Nc1ccccc1SC(C[N+](=O)[O-])c1ccc2c(c1)OCO2` (stereo unspecified): the TGI amounted to 13.7 µM in the test with COLO 205 colon; 23.8 µM in the test with OVCAR-4 ovarian; 7.74 µM in the test with SW-620 colon; 6.66 µM in the test on MOLT-4 leukemia; 4.75 µM with NCI-H460 lung; 24.3 µM in the test with SNB-19 CNS. Also, the TGI in the test on HCC-2998 colon was determined as 3.17 µM; in the test on UACC-62 melanoma it was 25.9 µM.
As for `Cc1cc(I)cc(CN(C)CCCCN2CCCCC2)c1O`, the GI50 with COLO 205 colon was 9.87 µM; in the test with OVCAR-4 ovarian, 28.3 µM; with SW-620 colon, 13.3 µM; with MOLT-4 leukemia, 7.08 µM; in the test on NCI-H460 lung, 13.2 µM; with SNB-19 CNS, 19 µM. Also, the GI50 in the test on HCC-2998 colon is 16 µM; in the test on UACC-62 melanoma it was 2.62 µM. Moreover, the TGI is 24.9 µM in the test on COLO 205 colon; above 100 µM with OVCAR-4 ovarian; 27.5 µM in the test with SW-620 colon; 21.8 µM with MOLT-4 leukemia; 26.7 µM in the test with NCI-H460 lung; 45.9 µM in the test on SNB-19 CNS. Also, the values for the TGI in the test with HCC-2998 colon and in the test with UACC-62 melanoma were 30.1 µM and 6.98 µM, respectively.
For `O=C(Nc1ccccc1OC(F)(F)F)Nc1n[nH]c2ccccc12`, the GI50 with COLO 205 colon is 71.8 µM; in the test with OVCAR-4 ovarian, 37.7 µM; with SW-620 colon, 36.8 µM; with MOLT-4 leukemia, 5.91 µM; with NCI-H460 lung it was 15 µM; in the test on SNB-19 CNS, 78.3 µM. In addition, the GI50 with HCC-2998 colon was 55.9 µM; with UACC-62 melanoma, 31.7 µM. Further, the TGI in the test with COLO 205 colon, in the test with OVCAR-4 ovarian, in the test on SW-620 colon, in the test with MOLT-4 leukemia, in the test with NCI-H460 lung and with SNB-19 CNS was above 100 µM throughout. The TGI with HCC-2998 colon and with UACC-62 melanoma was above 100 µM throughout.
For the compound `CCC(CO)Nc1nc2ccc(Cl)cc2c2ccccc12` (stereo unspecified), the GI50 in the test with COLO 205 colon is 11.9 µM; in the test with OVCAR-4 ovarian, 11.9 µM; with SW-620 colon, 13.5 µM; with MOLT-4 leukemia, 3.55 µM; with NCI-H460 lung it was 3.93 µM; in the test with SNB-19 CNS, 8.53 µM. The values for the GI50 in the test with HCC-2998 colon and in the test on UACC-62 melanoma were 2.82 µM and 4.71 µM, respectively. Moreover, the TGI was found to be 25.6 µM in the test on COLO 205 colon; 25.5 µM in the test on OVCAR-4 ovarian; 26.9 µM with SW-620 colon; 15.2 µM in the test with MOLT-4 leukemia; 14.8 µM with NCI-H460 lung; 21.3 µM with SNB-19 CNS. Moreover, the TGI came out at 10.6 µM in the test with HCC-2998 colon and 17 µM with UACC-62 melanoma.
For `CSc1nc2c(c(=O)[nH]1)N=C1c3ccccc3C(=O)C1C(c1ccccc1)N2` (stereo unspecified), the GI50 was 3.53 µM in the test on COLO 205 colon; 5.62 µM in the test with OVCAR-4 ovarian; 2.92 µM in the test with SW-620 colon; 5.24 µM in the test with MOLT-4 leukemia; 3.16 µM in the test with NCI-H460 lung; above 100 µM in the test with SNB-19 CNS. Further, the GI50 in the test on HCC-2998 colon was 6.75 µM; with UACC-62 melanoma, 2.14 µM. The TGI was above 100 µM with COLO 205 colon; above 100 µM in the test on OVCAR-4 ovarian; above 100 µM in the test with SW-620 colon; above 100 µM with MOLT-4 leukemia; 38.1 µM in the test with NCI-H460 lung; above 100 µM in the test on SNB-19 CNS. Further, the TGI with HCC-2998 colon and with UACC-62 melanoma was above 100 µM throughout.
Turning to `Cn1c2ccccc2c2c(Nc3ccccc3)c3ccccc3nc21`, the GI50 with COLO 205 colon was 59 µM; in the test on OVCAR-4 ovarian, 21.1 µM; in the test on SW-620 colon, 17.1 µM; with MOLT-4 leukemia, 7.89 µM; in the test with NCI-H460 lung it was 17.5 µM; in the test with SNB-19 CNS it was 11.5 µM. For the same compound, the GI50 in the test on HCC-2998 colon was 40.9 µM; in the test on UACC-62 melanoma it was 4.56 µM. In addition, the TGI in the test with COLO 205 colon was above 100 µM; with OVCAR-4 ovarian, above 100 µM; in the test with SW-620 colon, 58.3 µM; in the test with MOLT-4 leukemia it was above 100 µM; with NCI-H460 lung it was 41.1 µM; with SNB-19 CNS, above 100 µM. Moreover, the TGI is above 100 µM with HCC-2998 colon and 18.6 µM in the test on UACC-62 melanoma.
